Source: article PMC6120666 (The EMBO Journal, 2018)

How the values were obtained:
Experiment in all cases: Drug affinity chromatography with c-ponatinib and LC-MS/MS (ponatinib interactome)
Assay type in all cases: binding
[1] = target: T1, proteins of U2OS cell lysate (Homo sapiens, UniProt O00487); conditions: PSMD14, 26S proteasome non-ATPase regulatory subunit 14
T1 construct: Proteins enriched by c-ponatinib from U2OS cell lysate; endogenous in cells; host or cells: U2OS cell lysate
Procedure, shortened: (§1)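 U2OS cell lysate in NP-40 lysis buffer (2 mg protein per pulldown) was incubated with amine-derivatized NHS beads for 2 h at 4 °C. Bound proteins were washed, eluted with 100 mM formic acid, reduced, alkylated and trypsin-digested, then identified by nano-UPLC–MS/MS on Orbitrap instruments with a 60 min gradient.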

[2] = target: T2, proteins of U2OS cell lysate (Homo sapiens, UniProt O14980); conditions: XPO1, Exportin-1
T2 construct: Proteins enriched by c-ponatinib from U2OS cell lysate; endogenous in cells; host or cells: U2OS cell lysate
Procedure, shortened: as §1

[3] = target: T3, proteins of U2OS cell lysate (Homo sapiens, UniProt P09382); conditions: LGALS1, Galectin-1
T3 construct: Proteins enriched by c-ponatinib from U2OS cell lysate; endogenous in cells; host or cells: U2OS cell lysate
Procedure, shortened: as §1

[4] = target: T4, proteins of U2OS cell lysate (Homo sapiens, UniProt P13861); conditions: PRKAR2A, cAMP-dependent protein kinase type II-alpha regulatory subunit
T4 construct: Proteins enriched by c-ponatinib from U2OS cell lysate; endogenous in cells; host or cells: U2OS cell lysate
Procedure, shortened: as §1

[5] = target: T5, proteins of U2OS cell lysate (Homo sapiens, UniProt P21333); conditions: FLNA, Filamin-A
T5 construct: Proteins enriched by c-ponatinib from U2OS cell lysate; endogenous in cells; host or cells: U2OS cell lysate
Procedure, shortened: as §1

[6] = target: T6, proteins of U2OS cell lysate (Homo sapiens, UniProt P29323); conditions: EPHB2, Ephrin type-B receptor 2
T6 construct: Proteins enriched by c-ponatinib from U2OS cell lysate; endogenous in cells; host or cells: U2OS cell lysate
Procedure, shortened: as §1

[7] = target: T7, proteins of U2OS cell lysate (Homo sapiens, UniProt P40939); conditions: HADHA, Trifunctional enzyme subunit alpha, mitochondrial
T7 construct: Proteins enriched by c-ponatinib from U2OS cell lysate; endogenous in cells; host or cells: U2OS cell lysate
Procedure, shortened: as §1

[8] = target: T8, proteins of U2OS cell lysate (Homo sapiens, UniProt P51149); conditions: RAB7A, Ras-related protein Rab-7a
T8 construct: Proteins enriched by c-ponatinib from U2OS cell lysate; endogenous in cells; host or cells: U2OS cell lysate
Procedure, shortened: as §1

[9] = target: T9, proteins of U2OS cell lysate (Homo sapiens, UniProt P84090); conditions: ERH, Enhancer of rudimentary homolog
T9 construct: Proteins enriched by c-ponatinib from U2OS cell lysate; endogenous in cells; host or cells: U2OS cell lysate
Procedure, shortened: as §1

[10] = target: T10, proteins of U2OS cell lysate (Homo sapiens, UniProt Q00536); conditions: CDK16, Cyclin-dependent kinase 16
T10 construct: Proteins enriched by c-ponatinib from U2OS cell lysate; endogenous in cells; host or cells: U2OS cell lysate
Procedure, shortened: as §1

[11] = target: T11, proteins of U2OS cell lysate (Homo sapiens, UniProt Q09028); conditions: RBBP4;RBBP7, Histone-binding protein RBBP4
T11 construct: Proteins enriched by c-ponatinib from U2OS cell lysate; endogenous in cells; host or cells: U2OS cell lysate
Procedure, shortened: as §1

[12] = target: T12, proteins of U2OS cell lysate (Homo sapiens, UniProt Q13163); conditions: MAP2K5, Dual specificity mitogen-activated protein kinase kinase 5
T12 construct: Proteins enriched by c-ponatinib from U2OS cell lysate; endogenous in cells; host or cells: U2OS cell lysate
Procedure, shortened: as §1

[13] = target: T13, proteins of U2OS cell lysate (Homo sapiens, UniProt Q13546); conditions: RIPK1, Receptor-interacting serine/threonine-protein kinase 1
T13 construct: Proteins enriched by c-ponatinib from U2OS cell lysate; endogenous in cells; host or cells: U2OS cell lysate
Procedure, shortened: as §1

[14] = target: T14, proteins of U2OS cell lysate (Homo sapiens, UniProt Q15365); conditions: PCBP1, Poly(rC)-binding protein 1
T14 construct: Proteins enriched by c-ponatinib from U2OS cell lysate; endogenous in cells; host or cells: U2OS cell lysate
Procedure, shortened: as §1

[15] = target: T15, proteins of U2OS cell lysate (Homo sapiens, UniProt Q9UIA9); conditions: XPO7, Exportin-7
T15 construct: Proteins enriched by c-ponatinib from U2OS cell lysate; endogenous in cells; host or cells: U2OS cell lysate
Procedure, shortened: as §1

[16] = target: T16, proteins of U2OS cell lysate (Homo sapiens, UniProt Q9UJZ1); conditions: STOML2, Stomatin-like protein 2, mitochondrial
T16 construct: Proteins enriched by c-ponatinib from U2OS cell lysate; endogenous in cells; host or cells: U2OS cell lysate
Procedure, shortened: as §1

[17] = target: T17, proteins of U2OS cell lysate (Homo sapiens, UniProt Q9UMS4); conditions: PRPF19, Pre-mRNA-processing factor 19
T17 construct: Proteins enriched by c-ponatinib from U2OS cell lysate; endogenous in cells; host or cells: U2OS cell lysate
Procedure, shortened: as §1

[18] = target: T18, proteins of U2OS cell lysate (Homo sapiens, UniProt Q9UPT5); conditions: EXOC7, Exocyst complex component 7
T18 construct: Proteins enriched by c-ponatinib from U2OS cell lysate; endogenous in cells; host or cells: U2OS cell lysate
Procedure, shortened: as §1

[19] = target: T19, proteins of U2OS cell lysate (Homo sapiens, UniProt Q9Y5L0); conditions: TNPO3, Transportin-3
T19 construct: Proteins enriched by c-ponatinib from U2OS cell lysate; endogenous in cells; host or cells: U2OS cell lysate
Procedure, shortened: as §1

T13 sequence (Q13546 whole entry): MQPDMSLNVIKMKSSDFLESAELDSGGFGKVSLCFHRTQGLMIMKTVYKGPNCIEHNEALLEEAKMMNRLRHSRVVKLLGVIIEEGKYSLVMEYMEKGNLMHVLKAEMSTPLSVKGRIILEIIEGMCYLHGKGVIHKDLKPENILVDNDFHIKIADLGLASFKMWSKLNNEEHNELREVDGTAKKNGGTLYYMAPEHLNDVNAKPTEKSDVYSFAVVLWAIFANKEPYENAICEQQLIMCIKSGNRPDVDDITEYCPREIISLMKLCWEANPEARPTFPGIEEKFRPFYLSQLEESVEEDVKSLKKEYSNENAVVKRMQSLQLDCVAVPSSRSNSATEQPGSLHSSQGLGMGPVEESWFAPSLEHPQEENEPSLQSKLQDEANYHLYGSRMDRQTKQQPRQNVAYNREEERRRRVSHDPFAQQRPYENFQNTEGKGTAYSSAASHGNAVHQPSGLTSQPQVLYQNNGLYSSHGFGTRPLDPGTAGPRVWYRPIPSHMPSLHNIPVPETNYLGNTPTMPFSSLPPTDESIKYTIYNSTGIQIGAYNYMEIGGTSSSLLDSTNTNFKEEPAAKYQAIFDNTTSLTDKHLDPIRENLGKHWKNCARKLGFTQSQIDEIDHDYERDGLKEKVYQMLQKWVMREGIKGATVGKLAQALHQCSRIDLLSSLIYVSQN
T9 sequence (P84090 whole entry): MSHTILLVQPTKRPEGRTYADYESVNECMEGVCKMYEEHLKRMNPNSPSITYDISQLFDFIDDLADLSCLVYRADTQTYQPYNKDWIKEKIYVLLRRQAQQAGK
T7 sequence (P40939 37-763): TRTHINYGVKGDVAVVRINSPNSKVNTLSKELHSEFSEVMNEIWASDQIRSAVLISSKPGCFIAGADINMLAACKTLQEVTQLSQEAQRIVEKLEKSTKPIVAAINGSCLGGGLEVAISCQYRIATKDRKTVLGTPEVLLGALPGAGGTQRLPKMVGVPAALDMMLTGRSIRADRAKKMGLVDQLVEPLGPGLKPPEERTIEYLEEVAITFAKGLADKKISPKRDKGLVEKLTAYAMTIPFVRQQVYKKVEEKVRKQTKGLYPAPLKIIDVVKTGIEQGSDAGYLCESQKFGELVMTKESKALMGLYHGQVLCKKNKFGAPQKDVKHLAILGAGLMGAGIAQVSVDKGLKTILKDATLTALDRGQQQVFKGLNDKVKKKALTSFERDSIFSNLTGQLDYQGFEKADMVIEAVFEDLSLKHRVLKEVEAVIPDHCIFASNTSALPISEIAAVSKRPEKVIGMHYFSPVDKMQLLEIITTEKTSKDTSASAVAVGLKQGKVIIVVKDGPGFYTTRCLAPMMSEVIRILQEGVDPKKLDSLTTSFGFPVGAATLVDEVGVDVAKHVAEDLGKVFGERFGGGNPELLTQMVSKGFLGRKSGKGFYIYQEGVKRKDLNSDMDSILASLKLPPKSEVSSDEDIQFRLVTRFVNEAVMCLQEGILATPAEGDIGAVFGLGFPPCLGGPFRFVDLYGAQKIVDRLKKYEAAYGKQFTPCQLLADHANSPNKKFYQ
T4 sequence (P13861 whole entry): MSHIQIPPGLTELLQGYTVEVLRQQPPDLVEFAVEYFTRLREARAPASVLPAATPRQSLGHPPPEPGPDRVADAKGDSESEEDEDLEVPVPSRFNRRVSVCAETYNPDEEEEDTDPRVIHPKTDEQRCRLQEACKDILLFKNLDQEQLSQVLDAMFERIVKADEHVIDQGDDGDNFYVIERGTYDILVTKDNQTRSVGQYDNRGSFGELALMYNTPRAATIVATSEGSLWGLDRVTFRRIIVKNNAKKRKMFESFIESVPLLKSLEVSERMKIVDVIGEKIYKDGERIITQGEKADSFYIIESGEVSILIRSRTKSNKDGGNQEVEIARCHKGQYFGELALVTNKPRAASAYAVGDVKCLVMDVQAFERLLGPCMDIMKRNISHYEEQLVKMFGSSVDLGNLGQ
T18 sequence (Q9UPT5 whole entry): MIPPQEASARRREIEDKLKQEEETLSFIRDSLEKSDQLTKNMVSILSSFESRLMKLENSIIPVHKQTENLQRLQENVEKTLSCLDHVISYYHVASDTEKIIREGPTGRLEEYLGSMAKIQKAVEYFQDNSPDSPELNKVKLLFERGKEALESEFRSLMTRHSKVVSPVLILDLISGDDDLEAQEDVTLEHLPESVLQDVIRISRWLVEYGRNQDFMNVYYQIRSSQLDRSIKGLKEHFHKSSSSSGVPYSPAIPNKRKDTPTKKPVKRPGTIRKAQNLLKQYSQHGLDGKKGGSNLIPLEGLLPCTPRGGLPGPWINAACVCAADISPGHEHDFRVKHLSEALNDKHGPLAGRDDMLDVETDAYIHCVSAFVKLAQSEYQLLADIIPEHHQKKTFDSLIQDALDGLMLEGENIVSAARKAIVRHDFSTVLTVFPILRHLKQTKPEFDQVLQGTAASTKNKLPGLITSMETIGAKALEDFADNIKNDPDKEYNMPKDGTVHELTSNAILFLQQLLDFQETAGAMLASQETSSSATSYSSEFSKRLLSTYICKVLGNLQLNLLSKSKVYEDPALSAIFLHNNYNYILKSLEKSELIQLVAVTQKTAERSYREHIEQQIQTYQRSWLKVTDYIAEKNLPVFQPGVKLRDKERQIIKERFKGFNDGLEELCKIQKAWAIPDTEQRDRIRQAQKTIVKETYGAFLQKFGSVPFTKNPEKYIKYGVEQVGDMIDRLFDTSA
T14 sequence (Q15365 whole entry): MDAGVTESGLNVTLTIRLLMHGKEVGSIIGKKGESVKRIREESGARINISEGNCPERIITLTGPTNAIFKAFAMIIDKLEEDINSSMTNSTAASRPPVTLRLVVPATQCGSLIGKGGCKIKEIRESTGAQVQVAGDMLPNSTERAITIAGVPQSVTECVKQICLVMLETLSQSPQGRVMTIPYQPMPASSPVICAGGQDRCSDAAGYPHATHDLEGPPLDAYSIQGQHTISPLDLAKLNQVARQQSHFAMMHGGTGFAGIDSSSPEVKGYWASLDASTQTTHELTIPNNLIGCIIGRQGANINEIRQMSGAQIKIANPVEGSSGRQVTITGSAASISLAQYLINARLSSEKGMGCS
T12 sequence (Q13163 whole entry): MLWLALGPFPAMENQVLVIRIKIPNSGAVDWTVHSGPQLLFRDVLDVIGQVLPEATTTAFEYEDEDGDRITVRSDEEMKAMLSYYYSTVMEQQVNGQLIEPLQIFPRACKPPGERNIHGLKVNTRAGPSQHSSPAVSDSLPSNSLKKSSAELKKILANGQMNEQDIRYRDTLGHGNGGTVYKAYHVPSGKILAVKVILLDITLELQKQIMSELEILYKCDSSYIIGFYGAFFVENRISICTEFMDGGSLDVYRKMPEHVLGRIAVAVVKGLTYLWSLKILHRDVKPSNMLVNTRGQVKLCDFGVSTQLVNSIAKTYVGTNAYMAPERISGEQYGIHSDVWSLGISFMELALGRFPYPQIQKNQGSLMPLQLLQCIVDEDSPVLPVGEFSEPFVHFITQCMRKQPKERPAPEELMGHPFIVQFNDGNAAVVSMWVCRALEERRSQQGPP
T2 sequence (O14980 whole entry): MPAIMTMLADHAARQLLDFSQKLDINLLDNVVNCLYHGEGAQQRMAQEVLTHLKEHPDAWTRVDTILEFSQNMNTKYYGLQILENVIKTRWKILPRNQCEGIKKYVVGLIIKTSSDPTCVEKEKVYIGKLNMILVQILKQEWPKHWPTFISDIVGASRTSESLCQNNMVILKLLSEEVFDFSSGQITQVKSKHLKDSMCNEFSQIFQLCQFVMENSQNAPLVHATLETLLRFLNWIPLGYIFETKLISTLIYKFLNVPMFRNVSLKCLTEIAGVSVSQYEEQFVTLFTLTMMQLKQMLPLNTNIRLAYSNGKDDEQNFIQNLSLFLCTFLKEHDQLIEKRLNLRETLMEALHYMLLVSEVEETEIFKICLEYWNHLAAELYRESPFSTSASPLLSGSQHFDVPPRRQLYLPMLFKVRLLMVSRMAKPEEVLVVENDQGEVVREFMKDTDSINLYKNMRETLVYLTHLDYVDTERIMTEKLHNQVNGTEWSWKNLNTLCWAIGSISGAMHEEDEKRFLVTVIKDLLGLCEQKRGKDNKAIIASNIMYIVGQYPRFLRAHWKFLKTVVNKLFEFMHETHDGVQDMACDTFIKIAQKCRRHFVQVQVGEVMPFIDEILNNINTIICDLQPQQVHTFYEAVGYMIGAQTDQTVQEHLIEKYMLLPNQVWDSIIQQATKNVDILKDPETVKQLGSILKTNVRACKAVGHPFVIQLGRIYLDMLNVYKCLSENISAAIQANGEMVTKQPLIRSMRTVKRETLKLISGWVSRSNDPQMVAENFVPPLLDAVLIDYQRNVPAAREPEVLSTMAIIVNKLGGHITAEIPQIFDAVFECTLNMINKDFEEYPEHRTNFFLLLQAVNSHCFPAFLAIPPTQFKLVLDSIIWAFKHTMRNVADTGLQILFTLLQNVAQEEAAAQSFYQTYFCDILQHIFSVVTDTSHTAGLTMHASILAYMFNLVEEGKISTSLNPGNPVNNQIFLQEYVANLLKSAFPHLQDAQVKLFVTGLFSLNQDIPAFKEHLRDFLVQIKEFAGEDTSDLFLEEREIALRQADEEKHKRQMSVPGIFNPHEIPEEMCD
T11 sequence (Q09028 whole entry): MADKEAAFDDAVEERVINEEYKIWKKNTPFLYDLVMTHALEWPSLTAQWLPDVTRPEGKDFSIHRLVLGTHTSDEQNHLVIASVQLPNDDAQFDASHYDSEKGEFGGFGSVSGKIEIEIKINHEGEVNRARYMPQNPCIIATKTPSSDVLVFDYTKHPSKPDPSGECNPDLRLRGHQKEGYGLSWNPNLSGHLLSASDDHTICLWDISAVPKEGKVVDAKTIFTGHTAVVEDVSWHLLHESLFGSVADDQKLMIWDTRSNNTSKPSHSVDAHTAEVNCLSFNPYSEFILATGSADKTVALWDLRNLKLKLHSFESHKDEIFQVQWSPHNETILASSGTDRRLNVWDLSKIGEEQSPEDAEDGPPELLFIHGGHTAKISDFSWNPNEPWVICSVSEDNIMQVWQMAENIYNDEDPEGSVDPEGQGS

Cc1ccc(C(=O)Nc2ccc(CN3CCN(C)CC3)c(C(F)(F)F)c2)cc1C#Cc1cnc2cccnn12 [PON]
Average LFQ PON_WT [1]: 20.7842
Average LFQ PON_WT [2]: 23.5357
Average LFQ PON_WT [3]: 23.8412
Average LFQ PON_WT [4]: 19.7853
Average LFQ PON_WT [5]: 25.7064
Average LFQ PON_WT [6]: 23.9034
Average LFQ PON_WT [7]: 23.258
Average LFQ PON_WT [8]: 20.9612
Average LFQ PON_WT [9]: 21.4936
Average LFQ PON_WT [10]: 24.4833
Average LFQ PON_WT [11]: 21.1647
Average LFQ PON_WT [12]: 19.6379
Average LFQ PON_WT [13]: 25.0833
Average LFQ PON_WT [14]: 21.283
Average LFQ PON_WT [15]: 20.002
Average LFQ PON_WT [16]: 26.1635
Average LFQ PON_WT [17]: 21.24
Average LFQ PON_WT [18]: 19.8682
Average LFQ PON_WT [19]: 20.3086
